Reference: US20250171400A1, “AZA-HETEROCYCLYL CARBOXAMIDE AND RELATED COMPOUNDS AND THEIR USE IN TREATING MEDICAL CONDITIONS” (X-BIOTIX THERAPEUTICS, INC., priority 2021, published 2025)
Converted amounts (≈) assume the structure as drawn. Where two headings read alike, the source gives them in different places.

Assays:
P. aeruginosa LpxC = P. aeruginosa LpxC (Pseudomonas aeruginosa (strain ATCC 15692 / DSM 22644 / CIP 104116 / JCM 14847 / LMG 12228 / 1C / PRS 101 / PAO1), UniProt P47205); assay: biochemical; type: biochemical; conditions: 5 nM P. aeruginosa LpxC, 2.5 μM substrate, 1 hour at room temperature
Method: (§1) Exemplary compounds from the above Examples were tested for ability to inhibit LpxC activity using an in vitro substrate deacetylation assay with ADDA™ analysis. Assay procedures and results are described below.
(§2) For ADDA™ analysis, an aliquot of assay sample was withdrawn from each well of the 384-well plate and applied to a Hypercarb cartridge (Optimize Technologies, USA) under conditions designed to retain analytes of interest. Analytes were eluted using 1:1:2 acetone:acetonitrile:water containing 5 mM ammonium acetate then analysed by triple-quadrupole mass spectrometry. Mass spectrometry was carried out using electrospray ionization in negative ion mode.
For IC50 determinations, peak areas of the substrate and product were compared to compute the proportion of substrate reacted by the LpxC enzyme at each compound concentration.

E. coli LpxC = E. coli LpxC (Escherichia coli (strain K12), UniProt P0A725); assay: in vitro substrate deacetylation assay for inhibition of LpxC (ADDA analysis); type: biochemical; conditions: 5 nM E. coli LpxC, 2.5 μM substrate, 1 hour at room temperature
Method: as §1
Dilutions of test compound were pre-incubated with 5 nM P. aeruginosa or E. coli LpxC for 10 minutes at room temperature in 50 mM NaH2PO4, 500 mM sucrose, 0.2 mg/mL BSA, pH 7.2 and <1% DMSO. Reactions were initiated by the addition of 2× substrate (UDP-3-O—(R-3-hydroxydecanoyl)-N-acetylglucosamine, Carbosynth Ltd, UK, for P. aeruginosa LpxC and UDP-3-O—(R-3-hydroxymyristoyl)-N-acetylglucosamine, BOC Sciences, USA, for E. coli LpxC), in 50 mM NaH2PO4, 0.5 mg/mL BSA, pH 7.2, to a final concentration of 2.5 μM. Reactions proceeded for 1 hour at room temperature prior to quenching with and equal volume of 2% acetic acid.
as §2, with “mode. Daughter ion peaks representing detected substrate (P. aeruginosa: parent Q1 mass=775.8 amu, daughter Q3 mass=384.7 amu E. coli: parent Q1 mass=833.0 amu, daughter Q3 mass=385.0 amu, collision energy=analyte specific, dwell time=50 ms) were identified using a multiple-reaction monitoring protocol.” for “mode.”
Total activity (0% inhibition) was obtained from reactions containing no compound, and 100% inhibition is defined as reactions in the presence of 1 μM CHIR-090 (N-[(1S,2R)-2-hydroxy-1-[(hydroxyamino)carbonyl]propyl]-4-[2-[4-(4-morpholinylmethyl)phenyl]ethynyl]-benzamide). For IC50 determinations, peak areas of the substrate and product were compared to compute the proportion of substrate reacted by the LpxC enzyme at each compound concentration. The fractional activity was converted to percentage inhibition and plotted against compound concentration in ActivityBase™ and fit using a four-parameter logistic using non-linear regression to yield the IC50 value.

[1] = tested on: P. aeruginosa PAO1 isogenic mutant deficient in MexA mediated efflux; assay: broth microdilution minimum inhibition concentration assay; type: cell-based; conditions: Pseudomonas aeruginosa, PAO1, read-out: P. aeruginosa KO MIC
Method: (§3) Exemplary compounds from the above Examples were tested to determine their minimum inhibitory concentration (MIC) for exemplary strains of Eschericia and Pseudomonas bacteria using broth microdilution methods. Assay procedures and results are described below.
(§4) Broth microdilution assays were conducted according to Clinical and Laboratory Standards Institute guidelines (CLSI, M07-A11: Clinical and Laboratory Standards Institute. Methods for Dilution Antimicrobial Susceptibility Tests for Bacteria that Grow Aerobically; Approved Standard—11th Edition. Wayne, PA: CLSI, 2018.). Briefly, a 0.5 McFarland standard suspension was made from bacterial isolates on non-selective, solid media. The inocula were adjusted to give a bacterial concentration of 1×10^6 CFU/mL. Serial doubling-dilutions of each compound were prepared in cation-adjusted Mueller-Hinton broth (Sigma-Aldrich) in 96-well microdilution plates. A 50 μL aliquot of the inoculum was added to each microdilution plate and, within 15 minutes, incubated at 37° C. in air for 16-20 h. […] The test was controlled by the determination of piperacillin MIC against both E. coli ATCC 25922 and P. aeruginosa ATCC 27853 and ensuring accordance with the ranges published in CLSI supplementary document M100 (CLSI, M100Ed29: Clinical and Laboratory Standards Institute. Performance Standards for Antimicrobial Susceptibility Testing, 29th Edition. Wayne, PA: CLSI, 2018.).
(§5) Multiple enterobacteriaceae strains were tested, including E. coli ATCC 25922 and K. pneumoniae ATCC 43816. WT E. coli BW25113 was tested with an isogenic mutant deficient in acrA mediated efflux by clean deletion. WT P. aeruginosa PAO1 was tested with an isogenic mutant deficient in MexA mediated efflux by clean deletion.
(§6) Experimental results are provided in Table 4, which provides MIC values for wild-type E. coli BW25113 (“E. coli WT MIC”), an isogenic mutant deficient in acrA mediated efflux by clean deletion (“E. coli KO MIC”), wild-type P. aeruginosa PAO1 (“P. aeruginosa WT MIC”), and an isogenic mutant deficient in MexA mediated efflux by clean deletion (“[…]”).

[2] = tested on: E. coli BW25113 isogenic mutant deficient in acrA mediated efflux; assay: as above; type: cell-based; conditions: Escherichia coli, BW25113, read-out: E. coli KO MIC
Method: as §3, §4, §5, §6

[3] = tested on: wild-type E. coli BW25113; assay: as above; type: cell-based; conditions: Escherichia coli; wild-type E. coli BW25113, 37° C. 16-20 h; read-out: E. coli WT MIC
Method: as §3, §4, §5, §6

[4] = tested on: wild-type P. aeruginosa PAO1; assay: as above; type: cell-based; conditions: Pseudomonas aeruginosa
Method: as §3, §4, §5, §6

[5] = PAO1, read-out: P. aeruginosa WT MIC
[6] = wild-type P. aeruginosa PAO1, 37° C. 16-20 h, read-out: P. aeruginosa WT MIC

Sequence of E. coli LpxC (P0A725 whole entry): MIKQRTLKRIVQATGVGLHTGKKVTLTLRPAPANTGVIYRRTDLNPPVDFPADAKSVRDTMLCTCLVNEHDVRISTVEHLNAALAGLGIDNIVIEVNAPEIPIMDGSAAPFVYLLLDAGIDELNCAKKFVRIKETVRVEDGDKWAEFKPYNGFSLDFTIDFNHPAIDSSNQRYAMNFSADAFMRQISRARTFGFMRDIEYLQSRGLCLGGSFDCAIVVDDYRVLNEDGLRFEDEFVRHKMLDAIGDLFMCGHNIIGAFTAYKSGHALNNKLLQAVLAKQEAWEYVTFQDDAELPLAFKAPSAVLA

| SMILES | IC50 (P. aeruginosa LpxC) [nM] | IC50 (E. coli LpxC) [nM] | MIC [1] [µM] | MIC [2] [µM] | MIC [3] [µM] | MIC [4, 5] [µM] | MIC [4, 6] [µM] |
| --- | --- | --- | --- | --- | --- | --- | --- |
| Cc1cc(C#Cc2ccc(CN3CCOCC3)cc2)ccc1C(=O)NC[C@H]1C[C@@H](NC(=O)[C@@H]2C[C@H](F)CN2)CN1C(=O)C1CC1 [Example 7, (2S,4S)—N-((3R,5R)-1-(Cyclopropanecarbonyl)-5-((2-methyl-4-((4-(morpholinomethyl)phenyl)ethynyl)benzamido)methyl)pyrrolidin-3-yl)-4-fluoropyrrolidine-2-carboxamide] | 50 to 100 | < 500 | < 20 | < 20 | < 20 | > 100 |  |
| CC(C)C(=O)N1C[C@H](NC(=O)[C@@H]2C[C@H](C#N)CN2)C[C@@H]1C(=O)NCc1ccc(C#CC#CC2CC2)cc1 [Example 9AE] | < 50 | 500 to 2500 | 20 to 100 (≈ 9.99 to 50 µg/mL) | > 100 | > 100 |  | > 100 |
| CC(C)C(=O)N1C[C@H](NC(=O)[C@@H]2C[C@H](F)CN2)C[C@@H]1CNC(=O)c1ccc(C#Cc2ccc(CN3CCOCC3)cc2)cc1 [Example 5, (2S,4S)-4-Fluoro-N-((3R,5R)-1-isobutyryl-5-((4-((4-(morpholinomethyl)phenyl)ethynyl)benzamido)methyl)pyrrolidin-3-yl)pyrrolidine-2-carboxamide] | < 50 | < 500 | < 20 | < 20 | < 20 |  | > 100 |
| CC(C)C(=O)N1C[C@H](NC(=O)[C@@H]2C[C@@H](O)CN2)C[C@@H]1C(=O)NCc1ccc(C#Cc2ccc(CN3CCOCC3)cc2)cc1 [Example 9Y] | 50 to 100 | < 500 | 20 to 100 (≈ 12 to 60.2 µg/mL) | 20 to 100 (≈ 12 to 60.2 µg/mL) | > 100 | > 100 |  |
| CC(C)C(=O)N1C[C@H](NC(=O)[C@@H]2C[C@H](F)CN2)C[C@@H]1C(=O)NCc1ccc(C#Cc2ccc(CN3CCOCC3)cc2)cc1 [Example 9D] | < 50 | < 500 | < 20 | < 20 | 20 to 100 (≈ 12.1 to 60.4 µg/mL) | > 100 |  |
| CC(C)C(=O)N1C[C@H](NC(=O)[C@@H]2C[C@H](O)CN2)C[C@@H]1C(=O)NCc1ccc(C#CC#CC2CC2)cc1 [Example 9U] |  |  | 20 to 100 (≈ 9.81 to 49.1 µg/mL) | > 100 | > 100 | > 100 |  |
| CC(C)C(=O)N1C[C@H](NC(=O)[C@@H]2CCCN2)C[C@@H]1C(=O)NCc1ccc(C#Cc2ccccc2)cc1 [Example 9J] | 100 to 1000 | 2500 to 10000 | > 100 | 20 to 100 (≈ 9.73 to 48.7 µg/mL) | > 100 | > 100 |  |
| CC(C)C(=O)N1C[C@H](NC(=O)[C@@H]2CCCN2)C[C@@H]1C(=O)NCc1ccc(C#Cc2ccc(CN3CCOCC3)cc2)cc1 [Example 9K] | 50 to 100 | 500 to 2500 | 20 to 100 (≈ 11.7 to 58.6 µg/mL) | 20 to 100 (≈ 11.7 to 58.6 µg/mL) | > 100 | > 100 |  |
| CS(=O)(=O)N1C[C@H](NC(=O)[C@@H]2C[C@H](F)CN2)C[C@@H]1C(=O)NCc1ccc(C#Cc2ccc(CN3CCOCC3)cc2)cc1 [Example 9AI, (2R,4R)-4-((2S,4S)-4-Fluoropyrrolidine-2-carboxamido)-1-(methylsulfonyl)-N-(4-((4-(morpholinomethyl)phenyl)ethynyl)benzyl)pyrrolidine-2-carboxamide] | < 50 | < 500 | < 20 | 20 to 100 (≈ 12.2 to 61.2 µg/mL) | > 100 |  | > 100 |
| CC(C)C(=O)N1C[C@H](NC(=O)[C@@H]2C[C@@H](C#N)CN2)C[C@@H]1C(=O)NCc1ccc(C#Cc2ccc(CN3CCOCC3)cc2)cc1 [Example 9AC, (2R,4R)-4-((2S,4R)-4-Cyanopyrrolidine-2-carboxamido)-1-isobutyryl-N-(4-((4-(morpholinomethyl)phenyl)ethynyl)benzyl)pyrrolidine-2-carboxamide] | < 50 | 500 to 2500 | > 100 | > 100 | > 100 |  | > 100 |
| CC(C)C(=O)N1C[C@H](NC(=O)[C@@H]2C[C@H](F)CN2)C[C@@H]1C(=O)NCc1ccc(C#CC#CC2CC2)cc1 [Example 9B] | < 50 | 500 to 2500 | < 20 | 20 to 100 (≈ 9.85 to 49.3 µg/mL) | > 100 | > 100 |  |
| O=C(NC[C@H]1C[C@@H](NC(=O)[C@@H]2C[C@H](F)CN2)CN1C(=O)C1CC1)c1ccc(C#Cc2ccccc2)cc1 [Example 9AX] | < 50 | < 500 | < 20 | < 20 | < 20 |  | > 100 |
| CC(C)C(=O)N1C[C@H](NC(=O)[C@H]2NCC[C@@H]2O)C[C@@H]1C(=O)NCc1ccc(C#CC#CC2CC2)cc1 [Example 9AB] | < 50 | 500 to 2500 | 20 to 100 (≈ 9.81 to 49.1 µg/mL) | 20 to 100 (≈ 9.81 to 49.1 µg/mL) | > 100 | > 100 |  |
| O=C(O)CCN1C[C@H](NC(=O)[C@@H]2C[C@H](F)CN2)C[C@@H]1C(=O)NCc1ccc(C#CC#CC2CC2)cc1 [Example 9AO] | 100 to 1000 | 2500 to 10000 | > 100 | > 100 | > 100 | > 100 |  |
| O=C(N[C@@H]1C[C@H](C(=O)NCc2ccc(C#CC#CC3CC3)cc2)N(CCO)C1)[C@@H]1C[C@H](F)CN1 [Example 9AQ] | 100 to 1000 | 2500 to 10000 | > 100 | > 100 | > 100 | > 100 |  |
| CC(C)C(=O)N1C[C@H](NC(=O)[C@@H]2C[C@@H](O)CN2)C[C@@H]1C(=O)NCc1ccc(C#CC#CC2CC2)cc1 [Example 9Z] |  |  | 20 to 100 (≈ 9.81 to 49.1 µg/mL) | 20 to 100 (≈ 9.81 to 49.1 µg/mL) | > 100 | > 100 |  |
| CC(C)C(=O)N1C[C@H](NC(=O)[C@@H]2C[C@@H](F)CN2)C[C@@H]1C(=O)NCc1ccc(C#Cc2ccccc2)cc1 [Example 9E] |  |  | > 100 | > 100 | > 100 | > 100 |  |
| CC(C)C(=O)N1C[C@H](NC(=O)[C@@H]2C[C@H](F)CN2)C[C@@H]1C(=O)NCc1ccc(C#Cc2ccccc2)cc1 [Example 9A] |  |  | 20 to 100 (≈ 10.1 to 50.5 µg/mL) | 20 to 100 (≈ 10.1 to 50.5 µg/mL) | > 100 | > 100 |  |
